# Measured values: article PMC5748279, “Novel Antitubercular 6-Dialkylaminopyrimidine Carboxamides from Phenotypic Whole-Cell High Throughput Screening of a SoftFocus Library: Structure–Activity Relationship and Target Identification Studies” (Journal of Medicinal Chemistry, 2017)
# “Also recorded” adds a separate entry of the source. Like-named read-outs stand apart in the source and are kept apart here.
# Legend:
# [1] = tested on: cytochrome bd oxidase knockout mutant strain (cydKO); assay type: cell-based; settings: 7H9 GLU ADC medium
# [2] = tested on: PrecA-LUX reporter (genotoxic compounds); assay type: cell-based; settings: luminescence over 7 days, CIPRO control
# [3] = tested on: PiniB-LUX reporter (Mtb cell wall biosynthesis); assay type: cell-based; settings: luminescence over 7 days, INH control
# BCG_3827 (Rv3768) = assay type: binding, Mycobacterium bovis BCG
# [4] = target: Mycobacterium bovis BCG extract proteins (Mycobacterium bovis BCG, UniProt A0A1R3Y5K6); assay: biochemical; assay type: binding
# [5] = target: Mycobacterium bovis BCG extract proteins (Mycobacterium bovis BCG, UniProt A0A0H3M9Z0); assay: biochemical; assay type: binding
# [6] = target: Mycobacterium bovis BCG extract proteins (Mycobacterium bovis BCG, UniProt A1KLS7); assay: biochemical; assay type: binding
# [7] = target: Mycobacterium bovis BCG extract proteins (Mycobacterium bovis BCG, UniProt P9WGQ7); assay: biochemical; assay type: binding
# [8] = tested on: Mycobacterium bovis BCG extract proteins; assay: biochemical; assay type: binding
# [9] = target: Mycobacterium bovis BCG extract proteins (Mycobacterium bovis BCG, UniProt P9WKC7); assay: biochemical; assay type: binding
# [10] = target: Mycobacterium bovis BCG extract proteins (Mycobacterium bovis BCG, UniProt A0A1R3Y5H4); assay: biochemical; assay type: binding
# [11] = target: Mycobacterium bovis BCG extract proteins (Mycobacterium bovis BCG, UniProt A0A1R3Y6U4); assay: biochemical; assay type: binding
# [12] = target: Mycobacterium bovis BCG extract proteins (Mycobacterium bovis BCG, UniProt O69687); assay: biochemical; assay type: binding
# [13] = target: Mycobacterium bovis BCG extract proteins (Mycobacterium bovis BCG, UniProt A1KQG9); assay: biochemical; assay type: binding
# [14] = target: Mycobacterium bovis BCG extract proteins (Mycobacterium bovis BCG, UniProt P0A4Z9); assay: biochemical; assay type: binding
# [15] = target: Mycobacterium bovis BCG extract proteins (Mycobacterium bovis, UniProt A0A1R3Y5J0); assay: biochemical; assay type: binding
# [16] = target: Mycobacterium bovis BCG extract proteins (Mycobacterium bovis BCG, UniProt A0A1R3Y5J1); assay: biochemical; assay type: binding
# [17] = target: Mycobacterium bovis BCG extract proteins (Mycobacterium bovis BCG, UniProt A0A1R3Y5N8); assay: biochemical; assay type: binding
# BCG_3193 (Rv3169) = BCG_3193 (Rv3169) (Mycobacterium bovis BCG, UniProt A0A1R3Y3B6); assay: biochemical; assay type: binding
# [18] = Caseum binding using surrogate caseum
# mice = assay: Toxicity observed in mice on oral dosing; assay type: in vivo; settings: higher doses
# in vivo = settings: male, C57/BL6, mouse
# in vitro [19] = assay type: in vitro ADME; settings: human, plasma; PPB assay; read-out: free fraction in human plasma
# Procedure: (§1) The kinetic solubility assay was performed using a miniaturised shake flask method. 10 mM stock […]
# (§2) DMSO, and to spike (1:50) duplicate aqueous samples of FaSSIF (simulating fasting state biorelevant media, pH 6.5), with a final DMSO concentration of 2%. After shaking for 2 hours at 25 °C, the solutions were filtered and analysed by means of HPLC,DAD (Agilent 1200 Rapid Resolution HPLC with a diode array detector). Best fit calibration curves were constructed using the calibration standards, which were used to determine the aqueous samples’ solubility.13
# (§3) 4.2) Microsomal stability
# The metabolic stability assay was performed in duplicate in a 96,well micro titre plate. […]
# the cofactor NADPH (1 mM). […] Test compounds in the supernatant were analysed by means of LC,MS/MS (Agilent Rapid Resolution HPLC, AB SCIEX 4000 QTRAP MS) for the disappearance of parent compound. […]
# and ultracentrifuged for 4 hours (42000 rpm, 37 °C, Beckman Optima L,80XP). Analyte concentration of all compounds and sample types were determined by means of LC,MS/MS (Agilent Rapid Resolution HPLC, AB SCIEX 4000 QTRAP MS). […]
# The lipophilicity assay was performed in triplicate using a shake,flask procedure. […] The samples were analysed by HPLC,DAD (Agilent 1200 Rapid Resolution HPLC with a diode array detector) and the amount of compound in the buffer and n, octanol were used to determine the partition coefficient, LogD7.4.15 […]
# [20] = assay type: in vitro ADME
# Procedure: and ultracentrifuged for 4 hours (42000 rpm, 37 °C, Beckman Optima L,80XP). Analyte concentration of all compounds and sample types were determined by means of LC,MS/MS (Agilent Rapid Resolution HPLC, AB SCIEX 4000 QTRAP MS).
# 4.4) Lipophilicity (LogD7.4)
# The lipophilicity assay was performed in triplicate using a shake,flask procedure. 10 mM stock solutions of each test compound were used to spike (100 µM) a 1:1 mixture of phosphate buffer (pH 7.4) and n,octanol. The solutions were shaken vigorously (1500 rpm) on an orbital shaker for 3 hours at room temperature. Thereafter the samples were centrifuged in order to fully separate the two immiscible fluids. The samples were analysed by HPLC,DAD (Agilent 1200 Rapid Resolution HPLC with a diode array detector) and the amount of compound in the buffer and n, octanol were used to determine the partition coefficient, LogD7.4.15
# 4.5) Parallel Artificial Membrane Permeability Assay (PAMPA):
# The PAMPA assay was performed in triplicate in 96,well MultiScreen Filter plates (Millipore, 0.4 µM PCTE Membrane). Membrane filters were pre,coated with 5% hexadecane in hexane and allowed to dry prior to the assay. Membrane integrity marker, Lucifer yellow was added to the apical wells of the pre,coated MultiScreen plate donor/drug solutions containing test compound.
# Phosphate buffer (pH7.4) was added to the 96,well acceptor plate. 10 mM test compound was used to spike (1 µM) the donor buffer at physiologically relevant pH's (pH 4, 6.5 and 8), the donor plate slotted into the acceptor plate and incubated (4 hours at room temperature) with gentle shaking (40,50 rpm). Following the incubation, sample from the acceptor wells and theoretical equilibrium wells were transferred to the analysis plate and matrix matched with blank donor buffer. Acetonitrile containing internal standard (carbamazepine, 0.0236 µg/mL) was added to all samples and they were analysed by LC,MS/MS (Agilent Rapid Resolution HPLC, AB SCIEX 4500 MS). The normalised (analyte/internal) peak areas were used to calculate the apparent permeability (Papp). Membrane integrity was assessed by calculating the Papp of Lucifer Yellow […]
# chemosensitivity. […]. Thus only viable cells […]
# formazan. Formazan crystals are dissolved in DMSO. The test samples were tested in triplicate on […]
# experiment. […] Emetine was used […]
# as the reference drug in all experiments. The initial concentration of emetine was 100 µg/mL, […]
# lowest being 0.001 µg/mL. […] The […]
# (§4) the cell viability (data not shown).
# GraphPad Prism v.4 software. […]
# (§5) expressing the full length hERG channel. Single cell ionic currents were measured in the […]
# physchem [21] = assay type: physicochemical
# Procedure: as §1, §2, §3
# (§6) The metabolic stability assay was performed in duplicate in a 96,well micro titre plate. The test compounds (0.1 µM) were incubated individually in mouse, rat and pooled human liver […]
# (§7) the cofactor NADPH (1 mM). Reactions were quenched by adding 300 µL of ice cold acetonitrile containing internal standard (carbamazepine, 0.0236 µg/mL). Test compounds in the supernatant were analysed by means of LC,MS/MS (Agilent Rapid Resolution HPLC, AB SCIEX 4000 QTRAP MS) for the disappearance of parent compound. Metabolite searches were not conducted during the metabolic stability assay.14
# (§8) 4.3) Plasma protein binding (PPB) assay
# The plasma protein binding assay was performed in a 96,well micro titre plate with pooled human plasma, spiked with test compound (5 µM). An aliquot was immediately removed and quenched using ice cold acetonitrile containing internal standard (carbamazepine, 0.0236 µg/mL), and placed in the freezer. This served as the total concentration sample. After pre,incubation (37 °C for 1 hour) duplicate aliquots of the spiked plasma were transferred to ultra,centrifugation tubes, […]
# physchem [22] = settings: sheet table;; kinetic solubility, pH 7.4; aqueous buffer pH 7.4; Kinetic solubility at pH 7.4; read-out: Solubility (æM)
# Procedure: as §1, §2, §3, §6, §7, §8
# The plasma protein binding assay was performed in a 96,well micro titre plate with pooled human plasma, spiked with test compound (5 µM). […]
# [23] = tested on: Mycobacterium tuberculosis (H37RvMa); assay: microbe, parasite or virus in culture; parameters: MIC99 by standard broth microdilution against M. tuberculosis H37Rv; settings: sheet table;, MIC99, GAST/Fe medium, read-out: MIC99 GAST/Fe (æM)
# in vitro [24] = settings: african green monkey; sheet table;; IC50 on Vero cells, MTT; read-out: Cytotoxicity (æM)
# Procedure: (§9) chemosensitivity. […]. Thus only viable cells
# (§10) formazan. Formazan crystals are dissolved in DMSO. The test samples were tested in triplicate on
# (§11) experiment. […] Emetine was used
# (§12) as the reference drug in all experiments. The initial concentration of emetine was 100 µg/mL,
# (§13) lowest being 0.001 µg/mL. […] The
# as §4
# (§14) GraphPad Prism v.4 software.
# Electrophysiologi Table 2 SAR on the Central Core a Kinetic solubility at pH 7.4. b IC50 on Vero cell lines.
# [25] = tested on: Mycobacterium tuberculosis (H37RvMa); assay: microbe, parasite or virus in culture; parameters: MIC99 by standard broth microdilution against M. tuberculosis H37Rv; settings: read-out: MIC99 7H9/ADC (æM)
# [26] = tested on: Mycobacterium tuberculosis (H37RvMa); assay: microbe, parasite or virus in culture; assay type: cell-based; settings: for MIC99 7H9/ADC: 7H9/ADC medium; for MIC99 GAST/Fe: GAST/Fe medium
# Vero cell lines = assay type: cell-based, African green monkey; settings: read-out: Cytotoxicity (IC50 on Vero cell lines)
# Procedure: as §9, §10, §11, §12, §13, §4, §14, §5
compound,measurement,setting,value
"COc1ccc(NC(=O)c2cc(N(C)Cc3ccccc3)ncn2)cc1 [Compound 1, 6-(Benzyl(methyl)amino)-N-(4-methoxyphenyl)pyrimidine-4-carboxamide]",Δcyd 7H9 GLU ADC MIC99,[1],> 20 µM
same,PrecA-LUX reporter response,[2],delayed (Day 3 onwards) induction of luminescence
same,PiniB-LUX reporter response,[3],did not elicit a positive response; also recorded: no response
"O=C(Nc1ccccc1)c1ccc(=O)n(Cc2ccc(F)cc2)c1 [Compound 25, 1-(4-Fluorobenzyl)-6-oxo-N-phenyl-1,6-dihydropyridine-3-carboxamide]",IC50,BCG_3827 (Rv3768),≥ 30 µM
same,binding of BCG_3827 to the compound beads in presence of free compound,BCG_3827 (Rv3768),no effect
same,pIC50,BCG_3827 (Rv3768),≤ 4.52
same,relative abundance 10: Compound competition 0.029 µM 25,BCG_3827 (Rv3768); 0.029 µM,1.06
same,relative abundance 9: Compound competition 0.117 µM 25,BCG_3827 (Rv3768); 0.117 µM,0.70
same,relative abundance 8: Compound competition 0.47 µM 25,BCG_3827 (Rv3768); 0.47 µM,1.39
same,relative abundance 7: Compound competition 1.88 µM 25,BCG_3827 (Rv3768); 1.88 µM,1.36
same,relative abundance 6: Compound competition 7.5 µM 25,BCG_3827 (Rv3768); 7.5 µM,1.52
same,relative abundance 5: Compound competition 30 µM 25,BCG_3827 (Rv3768); 30 µM,1.12
same,IC50,[4]; IC50,≥ 30 µM
same,IC50,[4]; pIC50,≥ 30.2 µM
same,IC50,[5],≥ 30 µM
same,pIC50,[5],≤ 4.52
same,IC50,[6],≥ 30 µM
same,pIC50,[6],≤ 4.52
same,IC50,[7]; IC50,≥ 30 µM
same,IC50,[7]; pIC50,≥ 30.2 µM
same,IC50,[8],≥ 30 µM
same,pIC50,[8],≤ 4.52
same,IC50,[9]; IC50,≥ 30 µM
same,IC50,[9]; pIC50,≥ 30.2 µM
same,IC50,[10],≥ 30 µM
same,pIC50,[10],≤ 4.52
same,IC50,[11]; IC50,≥ 30 µM
same,IC50,[11]; pIC50,≥ 30.2 µM
same,IC50,[12],≥ 30 µM
same,pIC50,[12],≤ 4.52
same,IC50,[13],≥ 30 µM
same,pIC50,[13],≤ 4.52
same,IC50,[14],≥ 30 µM
same,pIC50,[14],≤ 4.52
same,IC50,[15]; IC50,≥ 30 µM
same,IC50,[15]; pIC50,≥ 30.2 µM
same,IC50,[16],≥ 30 µM
same,pIC50,[16],≤ 4.52
same,IC50,[17]; IC50,≥ 30 µM
same,IC50,[17]; pIC50,≥ 30.2 µM
same,binding of BCG_3193 to the compound beads in presence of free compound,BCG_3193 (Rv3169),no effect
"CN(Cc1ccc(C(F)(F)F)nc1)c1cc(C(=O)Nc2nncs2)ncn1 [Compound 52, 6-(Methyl((6-(trifluoromethyl)pyridin-3-yl)methyl)amino)-N-(1,3,4-thiadiazol-2-yl)pyrimidine-4-carboxamide]",caseum distribution unbound,[18],3.6%
same,toxicity to mice,mice,toxic to mice when dosed orally above 50 mg/kg
same,AUC(0-inf) at 24 h,"in vivo; iv, 5 mg/kg",35.1 µM·h
same,clearance at 24 h,"in vivo; iv, 5 mg/kg",6.6 mL/min/kg
same,AUC(0-inf) at 24 h,"in vivo; po, 20 mg/kg",93.6 µM·h
same,half-life,"in vivo; po, 20 mg/kg",3 h
same,"fraction unbound at 4 h, 5 µM",in vitro [19],≤ 0.3
same,PAMPA log Papp,[20],–3.9
same,solubility at 2 h,"physchem [21]; pH 6.5, fasted-state simulated intestinal fluid, read-out: FassiF solubility at pH 6.5",> 100 µM
same,solubility kinetic at 2 h,"physchem [21]; pH 7.4, pH 7.4",> 100 µM
CC(=O)N1CCN(c2ccc(NC(=O)c3cc(N(C)Cc4ccc(C(F)(F)F)nc4)ncn3)cn2)CC1 [compound 44],solubility at 2 h,physchem [22],< 5 µM
same,MIC99,[23],2.3 µM
same,CC50,in vitro [24],> 50 µM
same,MIC99,[25],4.7 µM
N-(4-(4-Acetylpiperazin-1-yl)phenyl)-6-(methyl((6-(trifluoromethyl)pyridin-3-yl)methyl)amino)pyrimidine-4-carboxamide [Compound 44],MIC99 7H9/ADC,[26],4.7 µM
same,MIC99 7H9/ADC,[26]; supplementary csv,4.7 æM
same,MIC99 GAST/Fe,[26],2.3 µM
same,MIC99 GAST/Fe,[26]; supplementary csv,2.3 æM
same,MIC,[26]; medium not stated,< 5 µM
same,IC50,Vero cell lines,> 50 µM
same,solubility kinetic at 2 h,physchem [21]; pH 7.4,<5 µM
same,Solubility,physchem [21]; supplementary csv,<5 æM
